Laboratory results as given in patent US11274114B2, “Modified mito-metformin compounds and methods of synthesis and use thereof” (THE MEDICAL COLLEGE OF WISCONSIN, INC., priority 2014, dated 2022).
Where “and” joins values, the source holds several entries; their conditions need not be identical. Identical values can stand only once.

Key:
[1] = test system: MiaPaCa-2 cells; experiment: IncuCyte real-time cell proliferation (cell confluence); assay type: cell-based, human
Procedure: Cell proliferation was measured using a label-free, non-invasive cellular confluence assay employing the IncuCyte™ Live-Cell Imaging Analyzer (Essen Bioscience). This system provides real-time cellular confluence data based on segmentation of high definition phase contrast images. MiaPaCa2 (1,000 cells/well) were seeded overnight on a 96-well plate, placed in an XL-3 incubation chamber maintained at 37 C. and cells photographed and confluence calculated every 2 hr by IncuCyte software. MiaPaCa2 cells were treated with Met (1 and 2 mM) or Mito-Met-C10 (1-2 μM).
(§1) IncuCyte Analyzer-real time measurement of cell proliferation. The cell proliferation was measured using a label-free, noninvasive cellular confluence assay by IncuCyte Live-Cell Imaging Systems (Essen Bioscience, Ann Arbor, Mich., USA; IncuCyte FLR). This system enables collection of live cell images at 2 h intervals over several days. The IncuCyte Analyzer provides real-time cellular confluence data based on segmentation of high-definition phase-contrast images. The cell proliferation is expressed as an increase in percentage of cell confluence.

[2] = test system: MiaPaCa-2 cells; experiment: Clonogenic assay (colony formation, survival fraction); assay type: cell-based, human; settings: for colony formation: 24 h; for IC50: Homo sapiens, MIA PaCa-2, 24 h, read-out: IC50, colony formation / survival fraction
Procedure: Clonogenic assay. […] The plates were kept within the incubator and media changed every 3-4 days until the control cells formed sufficiently large clones. The cell survival fractions were calculated as previously described.

[3] = test system: MiaPaCa-2 cells; experiment: Oxygen consumption rate in intact cells, Seahorse XF96; assay type: cell-based, human; settings: for concentration that inhibited OCR: intact MiaPaCa-2, after 24 h treatment and washout; for OCR inhibition: immediately after addition
Procedure: (§2) Respiratory enzyme activity in intact and permeabilized cells. The mitochondrial function in intact and permeabilized pancreatic cancer cells was measured using a Seahorse XF96 Extracellular Flux Analyzer (Seahorse Bioscience, North Billerica, Mass., USA). Unless specified otherwise, assays in intact cells were performed as previously described. Measurement of mitochondrial respiratory complexes in permeabilized cells was performed according to the manufacturer's instructions (Seahorse Bioscience). Briefly, intact cells were permeabilized using 1 nM Plasma Membrane Permeabilizer (PMP, Seahorse Bioscience) immediately before oxygen consumption rate (OCR) measurement by XF96. The oxygen consumption derived from mitochondrial complex I or complex II activity was measured by providing different substrates to mitochondria, e.g., pyruvate/malate for complex I and succinate for complex II activity. Rotenone, malonate and antimycin A were used as specific inhibitors of mitochondrial complex I, II and III activities, respectively.
Effects of Met and Mito-Met analogs on mitochondrial bioenergetics in MiaPaCa-2 cells. The oxygen consumption rate (OCR) and the extracellular acidification rate (ECAR) were measured as a readout of mitochondrial function and glycolysis using a Seahorse Bioscience XF96 extracellular flux analyzer. We compared the immediate OCR changes in response to different concentrations (e.g., IC50 or higher values determined by clonogenic assay) of Met, Mito-Met2, Mito-Met6, Mito-Met10, and phenformin (FIG. 13A).

[4] = test system: MiaPaCa-2 cells; experiment: Radiosensitization (X-radiation, clonogenic survival); assay type: cell-based, human; settings: for PDAC radiosensitivity: 24 h pretreatment before X-radiation
Procedure: MiaPaCa2 cells (1000 cells/well) were cultured in quadruplicate overnight in 96-well plates and changed to fresh medium.
(§3) Radiation experiments. […] The cells were then treated with X-radiation at a dose of 0, 2, 4, and 6 Gy. The control cells were treated with the same concentration of vehicle (0.1% DMSO) where appropriate. After irradiation, cells were suspended and seeded at various densities (100-8,000 cells per well) in 6-well plates for clonogenic assay as described above. The plates were kept within the incubator and media changed every 3-4 days for 2 weeks. Wells with 10-50 sufficiently large clones were chosen for calculating the cell survival fractions.

[5] = test system: HaCaT cells; experiment: IncuCyte cell proliferation in nonmalignant cells; assay type: cell-based; settings: HaCaT keratinocytes
Procedure: as §1

[6] = test system: MCF-10A cells; experiment: IncuCyte cell proliferation in nonmalignant cells; assay type: cell-based; settings: MCF-10A breast epithelial cells
Procedure: as §1

[7] = molecular target: T1, mitochondrial complex I (Homo sapiens, UniProt O75251+O75306+P03886); experiment: Complex I oxygen consumption (pyruvate/malate-driven OCR) in permeabilized cells, Seahorse XF96; assay type: cell-based; design: IC50, complex I oxygen consumption; other: permeabilized MiaPaCa-2, added acutely; settings: permeabilized MiaPaCa-2, added acutely
Procedure: as §2
(§4) The oxygen consumption rate was measured using the permeabilized MiaPaCa-2 cells in MAS buffer supplemented with pyruvate. The use of permeabilized cells avoids differences in cellular uptake of compounds. […] We tested the effect of pretreating cells with Mito-Met10 or Met using the permeabilized model. […]
Target sequence in this assay (P03886 whole entry): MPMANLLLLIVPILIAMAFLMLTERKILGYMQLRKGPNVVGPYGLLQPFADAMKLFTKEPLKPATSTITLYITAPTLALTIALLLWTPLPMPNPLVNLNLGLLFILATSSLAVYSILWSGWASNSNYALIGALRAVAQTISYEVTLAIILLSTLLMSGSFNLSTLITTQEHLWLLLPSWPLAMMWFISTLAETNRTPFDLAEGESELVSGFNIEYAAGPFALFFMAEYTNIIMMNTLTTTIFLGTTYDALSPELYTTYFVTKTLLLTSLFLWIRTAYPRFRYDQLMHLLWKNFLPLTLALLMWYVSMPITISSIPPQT
Target sequence in this assay (O75251 39-213): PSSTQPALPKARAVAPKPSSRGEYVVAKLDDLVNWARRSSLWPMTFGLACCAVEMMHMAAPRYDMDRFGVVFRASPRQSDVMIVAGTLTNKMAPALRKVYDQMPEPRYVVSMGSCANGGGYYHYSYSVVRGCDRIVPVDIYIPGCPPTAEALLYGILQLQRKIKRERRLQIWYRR
Target sequence in this assay (O75306 34-463): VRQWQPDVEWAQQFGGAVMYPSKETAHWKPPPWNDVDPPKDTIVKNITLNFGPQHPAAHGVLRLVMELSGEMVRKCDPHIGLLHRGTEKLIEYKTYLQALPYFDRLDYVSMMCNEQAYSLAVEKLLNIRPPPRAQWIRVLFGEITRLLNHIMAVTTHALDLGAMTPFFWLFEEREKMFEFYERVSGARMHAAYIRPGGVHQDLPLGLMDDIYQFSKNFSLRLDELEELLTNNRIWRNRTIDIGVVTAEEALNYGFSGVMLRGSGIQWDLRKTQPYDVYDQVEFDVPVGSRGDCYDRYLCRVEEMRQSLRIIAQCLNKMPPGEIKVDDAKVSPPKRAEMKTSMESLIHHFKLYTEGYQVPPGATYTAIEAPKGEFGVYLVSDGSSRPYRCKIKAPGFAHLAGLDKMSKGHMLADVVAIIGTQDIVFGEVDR

[8] = molecular target: T1, mitochondrial complex I; experiment: as above; assay type: cell-based; settings: 24 h treatment, then permeabilized
Procedure: as §2, §4
Target sequence in this assay (O75251 39-213): as the sequence (O75251 39-213) above
Target sequence in this assay (O75306 34-463): as the sequence (O75306 34-463) above
Target sequence in this assay (P03886 whole entry): as the sequence (P03886 whole entry) above

[9] = test system: AMPK; experiment: AMPK activation immunoblot (phospho-Thr-172 / total AMPK); assay type: cell-based, human; settings: MiaPaCa-2
Procedure: In this example, the inventors have shown that the mito-met compounds of the present invention cause an increased AMPK activation in cancer cells. In preliminary experiments (FIG. 4), human MiaPaCa2 and murine FC1199 PDAC cells treated 30 min with 1 μM mito-met (MM), 1 mM Met, or the oligomycin positive control were lysed, and proteins size-separated on SDS-PAGE, transferred to PVDF, and probed with an antibody to phosphorylated AMPK Thr-172.
Immunoblotting. MiaPaCa-2 PDAC cells (1×10^6) were plated to 80% confluency in 60 mm dishes and then serum-starved for 5 hours. […] Cells were stimulated with oligomycin as a positive control. After stimulation, cells were washed twice in cold PBS and lysed using a modified RIPA buffer. Lysates were normalized for protein concentration, size separated using reducing SDS-PAGE, electro-transferred to PVDF membranes (Millipore) and then probed using primary and horseradish peroxidase-conjugated secondary antibodies. Antibodies against total or phosphorylated 5′ AMP-activated protein kinase (AMPK) were purchased from Cell Signaling Technology (Danvers, Mass.) and used at the manufacturer's recommended dilutions. Proteins were visualized by chemiluminescence with auto-exposure and quantified by densitometric analysis using the FluorChem HD2 from Cell Biosciences (Santa Clara, Calif.).

[10] = test system: MiaPaCa-2 cells; experiment: Sytox Green cytotoxicity assay; assay type: cell-based; settings: MiaPaCa-2, 24 h, 100 μM
Procedure: Cytotoxicity assay. To determine the cytotoxicity of Mito-Met analogs and other TPP^+-conjugated to a long chain aliphatic hydrocarbon, we used the Sytox assay as described previously. MiaPaCa-2 cells were treated for 24 h, and dead cells were monitored in the presence of 200 nM Sytox Green (Invitrogen). The Sytox method labels the nuclei of dead cells yielding green fluorescence. Fluorescence intensities from the dead cells in 96-well plate were acquired in real time every 15 min after 4 h using a plate reader (BMG Labtech, Inc.) equipped with an atmosphere controller set at 37° C. and 5% CO2:95% air, using a fluorescence detection with 485 nm (excitation) and 535 nm (emission). To measure the total cell number, all of the samples in each treatment group were permeabilized by adding Triton X 100 (0.065%) in the presence of Sytox Green for 3 h, and maximal fluorescence intensities were taken as 100%. Data are represented as a percentage of dead cells after normalization to total cell number for each group.

[11] = test system: MiaPaCa-2 cell 3D spheroids; experiment: Three-dimensional spheroid growth in Matrigel; assay type: cell-based, human; settings: 0.5 μM, compared to Met 10,000 μM
Procedure: Three-dimensional spheroid cell cultures of PDAC. MiaPaCa-2 cells (5,000) were seeded in 96-well plates containing Matrigel (Corning), used as scaffold. This typical 3D-cell culture system allows spheroids to form within the matrix. […] At days 3, 7, and 14 the wells were observed by bright-field microscopy and images acquired on a Nikon Eclipse Ti inverted microscope (Nikon instrument Inc., NY, USA). Spheroid-forming cells were counted using the Nikon NIS Elements imaging software (Nikon). Data are expressed as mean and SD of number of spheroids.

[12] = test system: MCF-10A cells; experiment: Radiosensitization (X-radiation, clonogenic survival) in normal cells; assay type: cell-based; settings: 1 μM pretreatment
Procedure: as §3

[13] = test system: FC1242-luc autografts; experiment: Orthotopic syngeneic FC1242-luc tumor growth, bioluminescence imaging and calipers; assay type: in vivo, C57BL/6 mice; settings: for in vivo tumor growth relative to Met: 1 mg/kg daily, intraperitoneal
Source text: In vivo studies and bioluminescence imaging.

[14] = mouse
Procedure: In an initial proof-of-concept experiment, syngeneic KPC cells expressing Firefly luciferase (FC1242-luc) were orthotopically implanted to the pancreas of C57BL/6 mice and tumor growth monitored using bioluminescence imaging (FIG. 15F). Mice orthotopically autografted with FC1242-luc cells were treated daily with 1 mg/kg or 150 mg/kg Met, or 1 mg/kg Mito-Met. […] Serum from these animals was collected, and hepatic and kidney toxicity tested using standard AST, ALT, AP, and BUN assays, respectively.

[15] = Tissue accumulation in FC1242-luc orthotopic mice; assay type: in vivo; settings: 1 mg/kg daily for 2 weeks, tissues harvested 3 days after last treatment
Procedure: FIG. 19. Tissue accumulation of Mito-Met in in vivo FC1242-luc orthotopic mouse model. FC1242-luc orthotopic mice treated with Mito-Met10 (1 mg/kg) daily for 2 weeks. Tissue harvesting and extractions were performed 3 days after the last treatment. Quantitative data on concentrations of Mito-Met after normalization to tissue wet weight are represented as mean±SD, n=5.

[16] = test system: MiaPaCa-2 cells
Procedure: Cells were grown on 10 cm dishes and treated with the compounds for 24 h in full media.
Next we investigated the relative uptake of different Mito-Met analogs (Mito-Met2, Mito-Met6, and Mito-Met10) and phenformin in MiaPaCa-2 cells (FIG. 12D). Cells were treated with respective Mito-Met analog (1 μM) for 1 h. Cells were lysed after washing and analyzed for Mito-Met analog by LC-MS.

[17] = intact MiaPaCa-2, immediately after addition

CN(C)C(=N)N=C(N)N [Metformin]
inhibition at 1000 µM ([1]; Homo sapiens, MIA PaCa-2, 1,000 μM, read-out: inhibition of cell growth): 80% | colony formation ([2]; 3 mM): Almost no colony formation | IC50 [2]: 1300 µM | concentration that dose-dependently decreased oxygen consumption [3, 17]: 1 to 10 mM | PDAC radiosensitivity ([4]; 1 mM): increased radio-sensitization | PDAC radiosensitivity ([4]; 1 mM, listed as Met): increased radiosensitization | cell proliferation (confluence) of nonmalignant cells [5]: not significantly affected | cell proliferation (confluence) of nonmalignant cells [6]: not significantly affected | concentration that inhibited OCR [7]: 3,000 μM

N=C(N)NC(=N)NCC[P+](c1ccccc1)(c1ccccc1)c1ccccc1.[Br-] [Mito-Met2]
concentration that inhibited OCR [3]: 25 µM

N=C(N)NC(=N)NCCCCCCCCCC[P+](c1ccccc1)(c1ccccc1)c1ccccc1.[Br-] [Mito-Met10]
fold more effective than Met in inhibiting PDAC proliferation [1]: ~1,000 fold and > 1,000 fold | inhibition at 0.2 µM ([1]; Homo sapiens, MIA PaCa-2, 0.2 μM, read-out: inhibition of cell growth): 70% | inhibition at 1 µM ([1]; Homo sapiens, MIA PaCa-2, 1 μM, read-out: inhibition of cell growth): > 90% | IC50 ([1]; Homo sapiens, MIA PaCa-2, MiaPaCa-2, read-out: IC50 (FIG. 12B, cell confluence)): 840 nM | colony formation ([2]; 3 μM): Almost no colony formation | IC50 [2]: 1.1 µM | fold more effective than metformin in inhibiting MiaPaCa-2 cell proliferation ([2]; clonogenic, 24 h treatment (FIG. 5)): ~1,000 fold | concentration giving significant decrease in OCR (complex I inhibition) [8]: 0.75 µM | OCR inhibition ([3]; 1 μM): did not inhibit OCR | concentration that inhibited OCR [3]: 1 µM | OCR inhibition ([3]; ≈10 μM): slight inhibition | AMPK activation, fold more potent / lower concentration than metformin [9]: ~1,000 fold | cell death (Sytox Green) [10]: no detectable cell death | spheroid growth [11]: potently inhibited | fold lower concentration than Met for enhancement of radiation sensitivity ([4]; 1 μM versus Met 1 mM): 1,000 fold | PDAC radiosensitivity ([4]; 1 μM): as effective as 1 mM Met | radiosensitivity in normal cells [12]: no radiosensitivity was observed | cell proliferation (confluence) of nonmalignant cells [5]: not significantly affected | cell proliferation (confluence) of nonmalignant cells [6]: not significantly affected | in vivo tumor growth relative to Met [13]: considerably more potent than Met | in vivo tumor growth relative to Met ([13]; listed as Mito-Met): considerably more effective than Met | therapeutic index, fold greater than Met ([13]; in vivo experiments): ~1,000 fold | toxicity in vivo (hepatic and kidney) [14]: neither Met nor the mitochondria-targeted analog Mito-Met elicited toxicity in vivo | tissue accumulation [15]: increased accumulation of this compound in liver, kidney, spleen, and tumor | difference in intracellular uptake and retention, MiaPaCa-2 and MCF-10A cells ([16]; LC-MS (FIG. 14C)): four-fold | cellular uptake, fold higher than phenformin ([16]; MiaPaCa-2, 1 μM, 1 h): ~100 fold | concentration that inhibited OCR [7]: 10 µM

COC1=C(OC)C(=O)C(CCCCCCCCCC[P+](c2ccccc2)(c2ccccc2)c2ccccc2)=C(C)C1=O [Mito-Q]
cell death (Sytox Green) [10]: considerably more cytotoxic

CC1(C)CC(OCCCCC[P+](c2ccccc2)(c2ccccc2)c2ccccc2)CC(C)(C)N1[O].[Br-] [Mito-Tempol]
cell death (Sytox Green) [10]: considerably more cytotoxic

[H]/N=C(/N)N/C(=N/[H])NCCc1ccccc1 [Phenformin, reference compound]
concentration inhibiting OCR to the same extent as Met [3, 17]: ten-fold lower concentration
